In brackets after ≈: the same amount, converted by molar mass. Structures can show the parent of a compound that is named as a salt. Where two headings read alike, the source gives them in different places.
What was measured:
[1] = test system: Staphylococcus aureus (ATCC25923); assay: MIC, broth microdilution (CLSI), Staphylococcus aureus ATCC25923; details: Staphylococcus aureus, ATCC25923, read-out: S. aureus ATCC 25923 MIC
[2] = test system: Escherichia coli (ATCC25922); assay: MIC, broth microdilution (CLSI), Escherichia coli; details: for MIC: Escherichia coli, ATCC25922, read-out: E. coli ATCC 25922 MIC, Table XIII
[3] = test system: Staphylococcus aureus subsp. aureus (ATCC29213); assay: MIC, broth microdilution (CLSI), Staphylococcus aureus ATCC29213; assay type: cell-based; details: for MIC: Staphylococcus aureus; for S. aureus ATCC 29213 MIC: Table XIII, hydrochloride salt
[4] = test system: E. coli RNase P RNA, M1 RNA; assay: Inhibition of bacterial RNase P activity, IC50 determination (cleavage of pATSerUG by M1 RNA); assay type: biochemical; details: NI: No inhibition
[5] = ATCC29213, Table XIII, read-out: S. aureus ATCC 29213 MIC
[6] = ATCC29213, read-out: S. aureus ATCC 29213 MIC, Table XIII

SMILES: Cl.c1ccc(-c2ccc(CNCCc3c[nH]c4ccccc34)cc2)cc1 [Compound 24, N-([1,1′-biphenyl]-4-ylmethyl)-2-(1H-indol-3-yl)ethan-1-amine hydrochloride salt]
- MIC [1]: 6 µg/mL
- MIC [2]: 46 µg/mL
- MIC [3, 5]: 6 µg/mL

SMILES: NC1CCC(NCCC(c2ccc(F)c(F)c2)c2cn(CC3CCCCC3)c3ccccc23)CC1 [Compound 161, (1S,4S)-N1-(3-(1-(cyclohexylmethyl)-1H-indol-3-yl)-3-(3,4-difluorophenyl)propyl) cyclohexane-1,4-diamine hydrochloride salt]
- MIC [1]: 2 µg/mL
- IC50 [4]: 12 µM
- MIC [2]: 2 µg/mL
- MIC [3, 5]: 2 µg/mL

SMILES: Cc1cccc(C(CCN[C@H]2CC[C@H](N)CC2)c2cn(CC3CCCC3)c3ccccc23)c1 (stereo partly drawn) [Compound 164, (1R,4R)-N1-(3-(1-(cyclopentylmethyl)-1H-indol-3-yl)-3-(m-tolyl)propyl)cyclohexane-1,4-diamine hydrochloride salt]
- MIC [1]: 4 µg/mL
- IC50 [4]: 9.6 µM
- MIC [2]: 8 µg/mL
- MIC [3, 5]: 8 µg/mL

SMILES: Cc1cccc(C(CCNCC2CNCCO2)c2cn(CC3CCCCC3)c3ccc(Br)cc23)c1.Cl (stereo not drawn) [Compound 289, 3-(5-bromo-1-(cyclohexylmethyl)-1H-indol-3-yl)-N-(morpholin-2-ylmethyl)-3-(m-tolyl)propan-1-amine hydrochloride salt]
- MIC [1]: 2 µg/mL
- IC50 [4]: 15 µM
- MIC [2]: 16 µg/mL
- MIC [3, 5]: 64 µg/mL

SMILES: Cc1cccc(C(CCNCC2CNCCO2)c2cn(CC3CCCCC3)c3ccccc23)c1 (stereo not drawn) [Compound 288, 3-(1-(cyclohexylmethyl)-1H-indol-3-yl)-N-(morpholin-2-ylmethyl)-3-(m-tolyl)propan-1-amine hydrochloride salt]
- MIC [1]: 4 µg/mL
- IC50 [4]: 52 µM
- MIC [2]: 4 µg/mL
- MIC [3, 6]: 128 µg/mL

SMILES: Cc1cccc(C(CCNC2CCNCC2)c2cn(CC3CCOCC3)c3ccc(Br)cc23)c1 (stereo not drawn) [Compound 293, N-(3-(5-bromo-1-((tetrahydro-2H-pyran-4-yl)methyl)-1H-indol-3-yl)-3-(m-tolyl)propyl) piperidin-4-amine hydrochloride salt]
- MIC [1]: 5 µg/mL
- IC50 [4]: 70 µM
- MIC [2]: 4 µg/mL
- MIC [3, 6]: 8 µg/mL

SMILES: Cl.O=C(CCC1C(=O)N(CC2CCCCC2)c2ccccc21)NC1CCNCC1 (stereo not drawn) [Compound 275, 3-(1-(cyclohexylmethyl)-2-oxoindolin-3-yl)-N-(piperidin-4-yl) propanamide hydrochloride salt]
- MIC [1]: > 512 µg/mL
- IC50 [4]: 79 µM
- MIC [2]: > 128 µg/mL
- MIC [3, 5]: > 128 µg/mL

SMILES: Cc1cccc(C(CCN[C@H]2CC[C@H](N)CC2)c2cn(C3CCCCC3)c3ccc(-c4ccnn4C)cc23)c1.Cl.Cl (stereo partly drawn) [Compound 409, (1R,4R)-N1-(3-(1-cyclohexyl-5-(1-methyl-1H-pyrazol-5-yl)-1H-indol-3-yl)-3-(m-tolyl)propyl)cyclohexane-1,4-diamine hydrochloride salt]
- IC50 [4]: 39 µM
- MIC [2]: 16 µg/mL
- MIC [3, 5]: 4 µg/mL

SMILES: Cc1cccc(C(CCNCCCN)c2cn(C3CCCCC3)c3ccccc23)c1 (stereo not drawn) [Compound 358, N1-(3-(1-cyclohexyl-1H-indol-3-yl)-3-(m-tolyl)propyl)propane-1,3-diamine]
- IC50 [4]: 38 µM
- MIC [2]: 4 µg/mL (≈ 9.91 µM)
- MIC [3, 5]: 8 µg/mL (≈ 19.8 µM)

SMILES: NC1CCC(NCCC(c2cccc(OC(F)(F)F)c2)c2cn(C3CCCCC3)c3ccccc23)CC1 [Compound 397, (1S,4S)-N1-(3-(1-cyclohexyl-1H-indol-3-yl)-3-(3-(trifluoromethoxy)phenyl)propyl)cyclohexane-1,4-diamine hydrochloride salt]
- IC50 ([4]; hydrochloride salt): 6 µM
- E. coli ATCC 25922 MIC ([2]; Table XIII): 8 µg/mL
- S. aureus ATCC 29213 MIC [3]: 2 µg/mL

SMILES: NCCCNCCC(c1cn(C2CCCCC2)c2ccccc12)C1CCCCC1 (stereo not drawn) [Compound 383, N1-(3-cyclohexyl-3-(1-cyclohexyl-1H-indol-3-yl)propyl)propane-1,3-diamine]
- IC50 [4]: 28 µM
- MIC [2]: 4 µg/mL (≈ 10.1 µM)
- MIC [3, 5]: 4 µg/mL (≈ 10.1 µM)

SMILES: Cc1cccc(C(CCNCCCN)c2cn(C3CCCCC3)c3ccc(-c4ccncc4)cc23)c1.Cl.Cl (stereo not drawn) [Compound 412, N1-(3-(1-cyclohexyl-5-(pyridin-4-yl)-1H-indol-3-yl)-3-(m-tolyl)propyl) propane-1,3-diamine hydrochloride salt]
- IC50 [4]: 18 µM
- MIC [2]: 4 µg/mL
- MIC [3, 5]: 2 µg/mL

SMILES: Cc1cccc(C(CCNCC(N)CN)c2cn(C3CCCCC3)c3ccccc23)c1 (stereo not drawn) [Compound 394, N1-(3-(1-cyclohexyl-1H-indol-3-yl)-3-(m-tolyl)propyl)propane-1,2,3-triamine hydrochloride salt]
- IC50 [4]: 15 µM
- MIC [2]: 32 µg/mL
- MIC [3, 6]: 8 µg/mL

SMILES: Cc1cccc(C(CC(=O)NC2CCNCC2)c2cn(CC3CCCCC3)c3ccc(C(=O)O)cc23)c1.Cl (stereo not drawn) [Compound 297, 1-(cyclohexylmethyl)-3-(3-oxo-3-(piperidin-4-ylamino)-1-(m-tolyl)propyl)-1H-indole-5-carboxylic acid hydrochloride salt]
- MIC [1]: 34 µg/mL
- IC50 [4]: 38 µM
- MIC [2]: > 128 µg/mL
- MIC [3, 5]: 32 µg/mL

SMILES: Cl.Cl.N#Cc1ccc2c(C(CCNCCCN)c3cccc(OC(F)(F)F)c3)cn(C3CCCCC3)c2c1 (stereo not drawn) [Compound 410, 3-(3-((3-aminopropyl)amino)-1-(3-(trifluoromethoxy)phenyl)propyl)-1-cyclohexyl-1H-indole-6-carbonitrile salt]
- IC50 [4]: 10 µM
- MIC [2]: 4 µg/mL
- MIC [3, 5]: 4 µg/mL

SMILES: Cl.N[C@H]1CC[C@H](NC(=O)CC(c2cncc3ccccc23)c2cn(CC3CCCCC3)c3ccccc23)CC1 (stereo partly drawn) [Compound 191, N-((1R,4R)-4-aminocyclohexyl)-3-(1-(cyclohexylmethyl)-1H-indol-3-yl)-3-(isoquinolin-4-yl)propanamide hydrochloride salt]
- MIC [1]: 5 µg/mL
- IC50 [4]: 7 µM
- MIC [2]: 8 µg/mL
- MIC [3, 5]: 8 µg/mL

SMILES: Cl.Cl.NCCCNCCC(c1cn(C2CCCCC2)c2ccccc12)C1CCCC1 (stereo not drawn) [Compound 423, N1-(3-(1-cyclohexyl-1H-indol-3-yl)-3-cyclopentylpropyl) propane-1,3-diamine hydrochloride salt]
- IC50 [4]: 31 µM
- MIC [2]: 2 µg/mL
- MIC [3, 5]: 8 µg/mL

SMILES: Cl.Cl.NCCCNCCCc1cn(C2CCCCC2)c2ccc(C3CCCCC3)cc12 [Compound 399, N1-(3-(1,5-dicyclohexyl-1H-indol-3-yl)propyl)propane-1,3-diamine hydrochloride salt]
- IC50 [4]: 6.3 µM
- MIC [2]: 4 µg/mL
- MIC [3, 5]: 4 µg/mL

SMILES: Cc1cccc(C(CCNCCCN)c2cn(C3CCNCC3)c3ccccc23)c1.Cl.Cl.Cl (stereo not drawn) [Compound 322, N1-(3-(1-(piperidin-4-yl)-1H-indol-3-yl)-3-(m-tolyl)propyl)propane-1,3-diamine hydrochloride salt]
- IC50 [4]: 120 µM
- MIC [2]: > 128 µg/mL
- MIC [3, 5]: 16 µg/mL

SMILES: Cc1cccc(C(CC(=O)NC2CCNCC2)c2cn(CCC3CCCCC3)c3ccccc23)c1.Cl (stereo not drawn) [Compound 109, 3-(1-(2-cyclohexylethyl)-1H-indol-3-yl)-N-(piperidin-4-yl)-3-(m-tolyl)propanamide hydrochloride salt]
- MIC [1]: 4 µg/mL
- IC50 [4]: 3.7 µM
- MIC [2]: 128 µg/mL
- MIC [3, 5]: 4 µg/mL

SMILES: Cc1cccc(C(CCNC2CCC(N)CC2)c2cn(C3CCCCC3)c3ccccc23)c1 (stereo not drawn) [Compound 308, N1-(3-(1-cyclohexyl-1H-indol-3-yl)-3-(m-tolyl)propyl)cyclohexane-1,4-diamine hydrochloride salt]
- IC50 ([4]; hydrochloride salt): 29 µM
- MIC [2]: 4 µg/mL
- S. aureus ATCC 29213 MIC [3]: 4 µg/mL

SMILES: Cc1cccc(C(CCNC2CCC(N)CC2)c2cn(CC3CCCCC3)c3ccc([N+](=O)[O-])cc23)c1 [Compound 425, (1S,4S)-N1-(3-(1-(cyclohexylmethyl)-5-nitro-1H-indol-3-yl)-3-(m-tolyl)propyl) cyclohexane-1,4-diamine hydrochloride salt]
- IC50 [4]: 12 µM
- MIC [2]: 8 µg/mL
- MIC [3, 5]: 2 µg/mL

SMILES: Cc1cccc(C(CCNC2CCN(C(=N)N)CC2)c2cn(C3CCCCC3)c3ccccc23)c1.Cl (stereo not drawn) [Compound 353, 4-((3-(1-cyclohexyl-1H-indol-3-yl)-3-(m-tolyl)propyl)amino)piperidine-1-carboximidamide hydrochloride salt]
- IC50 [4]: 19 µM
- MIC [2]: 32 µg/mL
- MIC [3, 5]: 4 µg/mL

SMILES: CC(=O)N1CCC(NCCC(c2cccc(C)c2)c2cn(C3CCCCC3)c3ccccc23)CC1.Cl (stereo not drawn) [Compound 373, 1-(4-((3-(1-cyclohexyl-1H-indol-3-yl)-3-(m-tolyl)propyl)amino)piperidin-1-yl) ethan-1-one salt]
- IC50 [4]: 120 µM
- MIC [2]: > 128 µg/mL
- MIC [3, 5]: 8 µg/mL

SMILES: FC(F)(F)Oc1cccc(-c2ccc3c(c2)c(C2CCCC(NC4CCNCC4)C2)cn3C2CCCCC2)c1 (stereo not drawn) [Compound 403, N-(3-(1-cyclohexyl-5-(3-(trifluoromethoxy)phenyl)-1H-indol-3-yl)cyclohexyl) piperidin-4-amine hydrochloride salt]
- IC50 [4]: 7 µM
- MIC [2]: 16 µg/mL
- MIC [3, 6]: 4 µg/mL

SMILES: NCCCNC1CCCC(c2cn(C3CCCCC3)c3ccc(Br)cc23)C1 (stereo not drawn) [Compound 380, N1-(3-(5-bromo-1-cyclohexyl-1H-indol-3-yl)cyclohexyl)propane-1,3-diamine salt]
- IC50 [4]: 35 µM
- MIC [2]: 4 µg/mL
- MIC [3, 5]: 4 µg/mL

SMILES: Cc1cccc(C(CCNCCCN)c2cn(C3CCCCC3)c3ccc(Br)cc23)c1.Cl.Cl (stereo not drawn) [Compound 655, N1-(3-(5-bromo-1-cyclohexyl-1H-indol-3-yl)-3-(m-tolyl)propyl)propane-1,3-diamine hydrochloride salt]
- IC50 [4]: 11 µM
- MIC [2]: 4 µg/mL
- MIC [3, 5]: 4 µg/mL

Reference: US20210246115A1 (Bioimics AB, priority 2017, published 2021)
